{
  "source": "patent US9078446B2",
  "about": "“Use of N-(tetrazol-4-yl)- or N-(triazol-3-yl)arylcarboxamides or their salts for controlling unwanted plants in areas of transgenic crop plants being tolerant to HPPD inhibitor herbicides” (BAYER INTELLECTUAL PROPERTY GMBH, priority 2011, dated 2015)",
  "format_in_all_cases": "in vivo",
  "key": {"[1]": {"test_system": "non-transformed tobacco plants (Wt)", "experiment": "Symptoms due to herbicide application on tobacco plants (damage classes 0-3)", "settings": "50 g Al/ha, one week after application", "description": "(§1) Seeds harvested from TO transformants will be put on standard soil for germination. Three weeks later plantlets (T1) will be transferred to single pots and grown under standard cultivation conditions (PCT/EP2010/070575, published as WO 2011/076889). Two weeks later, plants were sprayed with several N-(tetrazol-4-yl)- or N-(triazol-3-yl)arylcarboxamides as defined above.\n(§2) Tables F1 to F5: Evaluation of the Symptoms Observed Due to the Application of the Herbicides on Transgenic Tobacco Plants, Expressing the Mutant Pseudomonas fluorescens HPPD G336W, the Avena HPPD (AvHPPD), the HPPD from Kordia algicida FMP27 or the HPPD from Blepharisma japonicum (FMP37), Compared to Non-Tranformed Tobacco Plants (“Wt”).\n(§3) The herbicides (with “g Al/ha” meaning “g active ingredient/ha”) were applied on 8 to 10 plants originated from 1 to 3 independent transgenic events per transgene.\n(§4) The symptoms were evaluated and classified as following: • 3=Very strong damage • 2=Strong damage • 1=Light and transient damage • 0=No damage"}, "[2]": {"test_system": "transgenic tobacco plants expressing tolerant HPPD enzymes", "experiment": "Tolerance of tobacco plants expressing tolerant HPPD enzymes (all transgenes)", "description": "(§5) Genes coding for the selected HPPD were obtained from a member of the group of organisms consisting of Avena sativa, Pseudomonas fluorescens mutant G336W, Blepharisma japonicum and Kordia algicida and cloned into the binary vector pBin19 allowing the integration of DNA into the tobacco genome, under the control of the CaMV35S promoter. For the cloning procedures, see A2 above for Avena sativa, see B2 above for Pseudomonas fluorescens, mutant G336W, see PCT/EP2010/070567 (published as WO 2011/076882, Example 5; for Blepharisma japonicum (FMP37) and see PCT/EP2010/070575, Example 5 for Kordia algicida (FMP27). Between the sequence corresponding to the promoter and the sequence coding for the HPPD a DNA sequence coding for a transit peptide to the chloroplast was inserted, in order to add at the N-terminal extremity of the protein a target signal to allow the localization of the HPPD protein into the plant chloroplast.\nas §1, §2, §3, §4"}, "[3]": {"test_system": "cotton plants expressing FMP 27 and FMP 37", "experiment": "Tolerance to HPPD inhibitors of cotton plants expressing tolerant HPPD enzymes", "settings": "T1 cotton plants; one week after application", "description": "(§6) Genes coding for the selected HPPD were obtained from a member of the group of organisms consisting of Blepharisma japonicum and Kordia algicida and cloned into an appropriate binary vector allowing the integration of DNA into the cotton genome, under the control of the CaMV35S promoter. For the respective cloning procedures, see WO2011076882 (PCT/EP2010/070567), Example 11; for Blepharisma japonicum (FMP37) and WO2011076889 (PCT/EP2010/070575), Example 11 for Kordia algicida (FMP27).\nBetween the sequence corresponding to the promoter and the sequence coding for the HPPD a DNA sequence coding for a transit peptide to the chloroplast was inserted, in order to add at the N-terminal extremity of the protein a target signal to allow the localization of the HPPD protein into the plant chloroplast. Cotton transformation was achieved as described in Example 12 of WO2011076882 (PCT/EP2010/070567) for Blepharisma japonicum (FMP37) and WO2011076889 (PCT/EP2010/070575) for Kordia algicida (FMP27). Seeds from T0 events showing tolerance to tembotrione were harvested.\nT1 Cotton seeds were transferred to single pots and grown under standard cultivation conditions, see WO2011076882 (PCT/EP2010/070567) for Blepharisma japonicum (FMP37) and WO2011076889 (PCT/EP2010/070575) for Kordia algicida (FMP27).\nAt least 4 weeks later, plants will be sprayed with several N-(tetrazol-4-yl)- or N-(triazol-3-yl)arylcarboxamides as defined above."}, "[4]": {"test_system": "soybean plants expressing Pseudomonas fluorescens G336W mutant, FMP 27 and FMP 37", "experiment": "Tolerance to HPPD inhibitors of soybean plants expressing tolerant HPPD enzymes", "settings": "T1 soybean plants; one week after application", "description": "as §6, with “the soybean” for “the cotton”, “Example 9;” for “Example 11;”, “Example 9” for “Example 11”\nBetween the sequence corresponding to the promoter and the sequence coding for the HPPD a DNA sequence coding for a transit peptide to the chloroplast was inserted, in order to add at the N-terminal extremity of the protein a target signal to allow the localization of the HPPD protein into the plant chloroplast. By using the vectors “pFCO112” (Blepharisma japonicum, WO2011076882), pFCO116 (Korida algicida, WO2011076889), and pFCO117” (see Example B2, above), soybean transformation was achieved as described in Example 10 of WO2011076882 (PCT/EP2010/070567) for Blepharisma japonicum (FMP37) and WO2011076889 (PCT/EP2010/070575) for Kordia algicida (FMP27). Seeds from TO events showing tolerance to tembotrione were harvested.\nT1 Soybean seeds were transferred to single pots and grown under standard cultivation conditions, see WO2011076882.\nTwo weeks later, plants will be sprayed with several N-(tetrazol-4-yl)- or N-(triazol-3-yl)arylcarboxamides as defined above."}, "[5]": {"test_system": "transgenic tobacco plants expressing HPPD from Blepharisma japonicum (FMP37)", "experiment": "Symptoms due to herbicide application on transgenic tobacco plants (damage classes 0-3)", "settings": "50 g Al/ha, one week after application", "description": "as §5, §1, §2, §3, §4"}, "[6]": {"test_system": "transgenic tobacco plants expressing mutant Pseudomonas fluorescens HPPD G336W (PfHPPD-G336W)", "experiment": "Symptoms due to herbicide application on transgenic tobacco plants (damage classes 0-3)", "settings": "PfHPPD-G336W line 646; 50 g Al/ha; one week after application", "description": "as §5, §1, §2, §3, §4"}, "[7]": {"test_system": "transgenic tobacco plants expressing HPPD from Kordia algicida FMP27", "experiment": "Symptoms due to herbicide application on transgenic tobacco plants (damage classes 0-3)", "settings": "50 g Al/ha, one week after application", "description": "as §5, §1, §2, §3, §4"}, "[8]": {"test_system": "transgenic tobacco plants expressing Avena HPPD (AvHPPD)", "experiment": "Symptoms due to herbicide application on transgenic tobacco plants (damage classes 0-3)", "settings": "AvHPPD line 659; 50 g Al/ha; one week after application", "description": "as §5, §1, §2, §3, §4"}},
  "data": [
    {"smiles": "CCOc1c(S(C)(=O)=O)ccc(C(=O)Nc2nnnn2C)c1Cl", "note": "[Compound 4-278]", "values": [
      {"measurement": "number of plants with Damage 0 (No damage)", "setting": "[1]", "result": 0},
      {"measurement": "number of plants with Damage 1 (Light and transient damage)", "setting": "[1]", "result": 0},
      {"measurement": "number of plants with Damage 2 (Strong damage)", "setting": "[1]", "result": 0},
      {"measurement": "number of plants with Damage 3 (Very strong damage)", "setting": "[1]", "result": 10},
      {"measurement": "tolerance of the transgenic tobacco plants (symptoms due to application of the herbicide)", "setting": "[2]; T1 plants sprayed, evaluated one week after application", "result": "good tolerance"},
      {"measurement": "sensitivity of transgenic tobacco plants compared to wild type (wt) plants", "setting": "[2]; all tested independent lines, agronomically relevant dose", "result": "less sensitive"},
      {"measurement": "tolerance of transgenic plants compared to the wild-type cotton plants", "setting": "[3]", "result": "superior tolerance"},
      {"measurement": "tolerance of transgenic plants compared to the wild-type soybean plants", "setting": "[4]", "result": "superior tolerance"},
      {"measurement": "number of plants with Damage 0 (No damage)", "setting": "[5]; FMP37 line 749", "result": 5},
      {"measurement": "number of plants with Damage 1 (Light and transient damage)", "setting": "[5]; FMP37 line 749", "result": 4},
      {"measurement": "number of plants with Damage 2 (Strong damage)", "setting": "[5]; FMP37 line 749", "result": 0},
      {"measurement": "number of plants with Damage 3 (Very strong damage)", "setting": "[5]; FMP37 line 749", "result": 1},
      {"measurement": "number of plants with Damage 0 (No damage)", "setting": "[5]; FMP37 line 754", "result": 5},
      {"measurement": "number of plants with Damage 1 (Light and transient damage)", "setting": "[5]; FMP37 line 754", "result": 4},
      {"measurement": "number of plants with Damage 2 (Strong damage)", "setting": "[5]; FMP37 line 754", "result": 0},
      {"measurement": "number of plants with Damage 3 (Very strong damage)", "setting": "[5]; FMP37 line 754", "result": 1},
      {"measurement": "number of plants with Damage 0 (No damage)", "setting": "[5]; FMP37 line 795", "result": 4},
      {"measurement": "number of plants with Damage 1 (Light and transient damage)", "setting": "[5]; FMP37 line 795", "result": 3},
      {"measurement": "number of plants with Damage 2 (Strong damage)", "setting": "[5]; FMP37 line 795", "result": 0},
      {"measurement": "number of plants with Damage 3 (Very strong damage)", "setting": "[5]; FMP37 line 795", "result": 3},
      {"measurement": "number of plants with Damage 0 (No damage)", "setting": "[6]", "result": 6},
      {"measurement": "number of plants with Damage 1 (Light and transient damage)", "setting": "[6]", "result": 3},
      {"measurement": "number of plants with Damage 2 (Strong damage)", "setting": "[6]", "result": 0},
      {"measurement": "number of plants with Damage 3 (Very strong damage)", "setting": "[6]", "result": 1},
      {"measurement": "number of plants with Damage 0 (No damage)", "setting": "[7]; FMP27 line 733", "result": 6},
      {"measurement": "number of plants with Damage 1 (Light and transient damage)", "setting": "[7]; FMP27 line 733", "result": 4},
      {"measurement": "number of plants with Damage 2 (Strong damage)", "setting": "[7]; FMP27 line 733", "result": 0},
      {"measurement": "number of plants with Damage 3 (Very strong damage)", "setting": "[7]; FMP27 line 733", "result": 0},
      {"measurement": "number of plants with Damage 0 (No damage)", "setting": "[7]; FMP27 line 734", "result": 6},
      {"measurement": "number of plants with Damage 1 (Light and transient damage)", "setting": "[7]; FMP27 line 734", "result": 3},
      {"measurement": "number of plants with Damage 2 (Strong damage)", "setting": "[7]; FMP27 line 734", "result": 0},
      {"measurement": "number of plants with Damage 3 (Very strong damage)", "setting": "[7]; FMP27 line 734", "result": 1},
      {"measurement": "number of plants with Damage 0 (No damage)", "setting": "[7]; FMP27 line 735", "result": 6},
      {"measurement": "number of plants with Damage 1 (Light and transient damage)", "setting": "[7]; FMP27 line 735", "result": 2},
      {"measurement": "number of plants with Damage 2 (Strong damage)", "setting": "[7]; FMP27 line 735", "result": 0},
      {"measurement": "number of plants with Damage 3 (Very strong damage)", "setting": "[7]; FMP27 line 735", "result": 2},
      {"measurement": "number of plants with Damage 0 (No damage)", "setting": "[8]", "result": 9},
      {"measurement": "number of plants with Damage 1 (Light and transient damage)", "setting": "[8]", "result": 0},
      {"measurement": "number of plants with Damage 2 (Strong damage)", "setting": "[8]", "result": 0},
      {"measurement": "number of plants with Damage 3 (Very strong damage)", "setting": "[8]", "result": 1}
    ]}
  ]
}
